Each structure is given as a SMILES string.

The IC50 is the concentration needed to halve the response being measured. A lower IC50 goes with greater potency in that assay.

One test concerns the target T1, CDK9/CycT1 (Homo sapiens, UniProt P50750).
T1 construct: Recombinant full-length His-tagged human CDK9 and CycT1; His; purchased Invitrogen PV4131; host or cells: insect cells
As to the kind of experiment: CDK9/CycT1 kinase assay (TR-FRET). Format: biochemical. To be noted: Method 1, 10 μM ATP. From the text: 1. CDK9/CycT1 Kinase Assay:
CDK9/CycT1-inhibitory activity of compounds of the present invention was quantified employing the CDK9/CycT1 TR-FRET assay as described in the following paragraphs:
Recombinant full-length His-tagged human CDK9 and CycT1, expressed in insect cells and purified by Ni-NTA affinity chromatography, were purchased from Invitrogen (Cat. No PV4131). As substrate for the kinase reaction biotinylated peptide biotin-Ttds-[…] (C-terminus in amid form) was used which can be purchased e.g. form the company JERINI Peptide Technologies (Berlin, Germany). For the assay 50 nl of a 100fold concentrated solution of the test compound in DMSO was pipetted into a black low volume 384well microtiter plate (Greiner Bio-One, Frickenhausen, Germany), 2 μl of a solution of CDK9/CycT1 in aqueous assay buffer [50 mM Tris/HCl pH 8.0, 10 mM MgCl2, 1.0 mM dithiothreitol, 0.1 mM sodium ortho-vanadate, 0.01% (v/v) Nonidet-P40 (Sigma)] were added and the mixture was incubated for 15 min at 22° C. to allow pre-binding of the test compounds to the enzyme before the start of the kinase reaction. Then the kinase reaction was started by the addition of 3 μl of a solution of adenosine-tri-phosphate (ATP, 16.7 μM=>final conc. in the 5 μl assay volume is 10 μM) and substrate (1.67 μM=>final conc. in the 5 μl assay volume is 1 μM) in assay buffer and the resulting mixture was incubated for a reaction time of 25 min at 22° C. The concentration of CDK9/CycT1 was adjusted depending of the activity of the enzyme lot and was chosen appropriate to have the assay in the linear range, typical concentrations were in the range of 1 μg/ml. The reaction was stopped by the addition of 5 μl of a solution of TR-FRET detection reagents (0.2 μM streptavidine-XL665 [Cisbio Bioassays, Codolet, France] and 1 nM anti-RB(pSer807/pSer811)-antibody from BD Pharmingen [#558389] and 1.2 nM LANCE EU-W1024 labeled anti-mouse IgG antibody [Perkin-Elmer, product no. AD0077]) in an aqueous EDTA-solution (100 mM EDTA, 0.2% (w/v) bovine serum albumin in 100 mM HEPES/NaOH pH 7.0).
(§1) The resulting mixture was incubated 1 h at 22° C. to allow the formation of complex between the phosphorylated biotinylated peptide and the detection reagents. Subsequently the amount of phosphorylated substrate was evaluated by measurement of the resonance energy transfer from the Eu-chelate to the streptavidine-XL. Therefore, the fluorescence emissions at 620 nm and 665 nm after excitation at 350 nm was measured in a HTRF reader, e.g. a Rubystar (BMG Labtechnologies, Offenburg, Germany) or a Viewlux (Perkin-Elmer). The ratio of the emissions at 665 nm and at 622 nm was taken as the measure for the amount of phosphorylated substrate.
For orientation: Time-resolved FRET reads energy transfer from a long-lived donor to a nearby acceptor.

The target in a further test is T2, CDK2/CycE (Homo sapiens, UniProt P24941).
T2 construct: GST; purchased ProQinase GmbH (Freiburg, Germany); host or cells: insect cells (Sf9)
As to the kind of experiment: CDK2/CycE kinase assay (TR-FRET). The format is biochemical. To be noted: Method 2, 10 μM ATP.
Source text: 2. CDK2/CycE Kinase Assay:
CDK2/CycE-inhibitory activity of compounds of the present invention was quantified employing the CDK2/CycE TR-FRET assay as described in the following paragraphs:
Recombinant fusion proteins of GST and human CDK2 and of GST and human CycE, expressed in insect cells (Sf9) and purified by Glutathion-Sepharose affinity chromatography, were purchased from ProQinase GmbH (Freiburg, Germany). As substrate for the kinase reaction biotinylated peptide biotin-Ttds-[…] (C-terminus in amid form) was used which can be purchased e.g. form the company JERINI Peptide Technologies (Berlin, Germany).
For the assay 50 nl of a 100fold concentrated solution of the test compound in DMSO was pipetted into a black low volume 384well microtiter plate (Greiner Bio-One, Frickenhausen, Germany), 2 μl of a solution of CDK2/CycE in aqueous assay buffer [50 mM Tris/HCl pH 8.0, 10 mM MgCl2, 1.0 mM dithiothreitol, 0.1 mM sodium ortho-vanadate, 0.01% (v/v) Nonidet-P40 (Sigma)] were added and the mixture was incubated for […] at 22° C. to allow pre-binding of the test compounds to the enzyme before the start of the kinase reaction. Then the kinase reaction was started by the addition of 3 μl of a solution of adenosine-tri-phosphate (ATP, 16.7 μM=>final conc. in the 5 it assay volume is 10 μM) and substrate (1.25 μM=>final conc. in the 5 it assay volume is 0.75 μM) in assay buffer and the resulting mixture was incubated for a reaction time of […] at 22° C. The concentration of CDK2/CycE was adjusted depending of the activity of the enzyme lot and was chosen appropriate to have the assay in the linear range, typical concentrations were in the range of 130 ng/ml. The reaction was stopped by the addition of 5 it of a solution of TR-FRET detection reagents (0.2 μM streptavidine-XL665 [Cisbio Bioassays, Codolet, France] and 1 nM anti-RB(pSer807/pSer811)-antibody from BD Pharmingen [#558389] and 1.2 nM LANCE EU-W1024 labeled anti-mouse IgG antibody [Perkin-Elmer, product no. AD0077]) in an aqueous EDTA-solution (100 mM EDTA, 0.2% (w/v) bovine serum albumin in 100 mM HEPES/NaOH pH 7.0).
as §1, with “TR-FRET” for “HTRF”

T1 sequence (P50750 whole entry): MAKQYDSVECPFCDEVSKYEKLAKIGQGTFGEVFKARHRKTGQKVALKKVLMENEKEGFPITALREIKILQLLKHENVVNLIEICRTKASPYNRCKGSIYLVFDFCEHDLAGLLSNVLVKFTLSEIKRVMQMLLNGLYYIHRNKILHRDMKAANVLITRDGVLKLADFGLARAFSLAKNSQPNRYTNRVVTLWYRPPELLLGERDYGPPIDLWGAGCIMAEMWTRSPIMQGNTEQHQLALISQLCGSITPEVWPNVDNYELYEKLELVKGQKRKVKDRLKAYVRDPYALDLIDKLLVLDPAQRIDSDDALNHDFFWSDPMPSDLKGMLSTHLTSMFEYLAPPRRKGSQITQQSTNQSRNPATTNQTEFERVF
T1 sequence (O60563 whole entry partner): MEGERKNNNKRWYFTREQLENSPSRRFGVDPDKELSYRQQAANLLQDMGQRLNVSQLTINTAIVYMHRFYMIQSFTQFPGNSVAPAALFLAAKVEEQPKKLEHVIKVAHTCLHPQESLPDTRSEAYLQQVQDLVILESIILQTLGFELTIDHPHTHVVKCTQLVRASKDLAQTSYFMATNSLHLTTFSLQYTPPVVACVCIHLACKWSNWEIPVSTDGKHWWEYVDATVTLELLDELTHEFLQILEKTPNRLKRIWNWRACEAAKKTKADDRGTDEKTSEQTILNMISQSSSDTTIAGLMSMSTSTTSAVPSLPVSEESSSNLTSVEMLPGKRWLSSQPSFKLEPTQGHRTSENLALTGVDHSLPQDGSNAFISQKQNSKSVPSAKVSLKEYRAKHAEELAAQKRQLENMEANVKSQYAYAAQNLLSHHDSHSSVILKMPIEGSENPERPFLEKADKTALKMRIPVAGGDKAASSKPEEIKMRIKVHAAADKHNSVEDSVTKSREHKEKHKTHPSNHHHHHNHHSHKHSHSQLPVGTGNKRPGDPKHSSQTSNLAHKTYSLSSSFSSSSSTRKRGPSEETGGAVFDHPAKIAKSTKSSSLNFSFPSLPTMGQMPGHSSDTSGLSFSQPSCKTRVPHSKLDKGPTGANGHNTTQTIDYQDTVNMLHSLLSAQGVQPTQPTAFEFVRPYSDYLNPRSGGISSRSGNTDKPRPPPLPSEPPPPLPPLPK

`CS(=O)(=O)Cc1cccc(Nc2ncnc(-c3cc(F)ccc3OCC3CCOCC3)n2)c1` [Example 21, 4-[5-Fluoro-2-(tetrahydro-2H-pyran-4-ylmethoxy)phenyl]-N-{3-[(methylsulfonyl)methyl]phenyl}-1,3,5-triazin-2-amine]: the half-maximal inhibitory concentration (IC50) at CDK9/CycT1 was 110 nM; against CDK2/CycE it was 8800 nM.

Consider `CS(=O)(=O)Cc1cccc(Nc2ncnc(-c3ccc(F)cc3OCC3(F)CCCCC3)n2)c1` [Example 66, 4-{4-Fluoro-2-[(1-fluorocyclohexyl)-methoxy]phenyl}-N-{3-[(methylsulfonyl)-methyl]phenyl}-1,3,5-triazin-2-amine], for which the IC50 at CDK9/CycT1 was 22 nM; against CDK2/CycE, 6800 nM.

Consider `CCOCCOc1cc(F)ccc1-c1ncnc(Nc2cccc(CS(C)(=O)=O)c2)n1` [Example 51, 4-[2-(2-Ethoxyethoxy)-4-fluorophenyl]-N-{3-[(methylsulfonyl)methyl]phenyl}-1,3,5-triazin-2-amine], for which the values for the IC50 against CDK9/CycT1 and at CDK2/CycE were 80 nM and 9400 nM, respectively.

As to `CS(=O)(=O)Cc1cccc(Nc2ncnc(-c3cc(F)ccc3OCc3ccccc3F)n2)c1` [Example 30, 4-{5-Fluoro-2-[(2-fluorobenzyl)oxy]phenyl}-N-{3-[(methylsulfonyl)methyl]phenyl}-1,3,5-triazin-2-amine], the IC50 came to 32 nM against CDK9/CycT1 and 6600 nM on CDK2/CycE.

Regarding `COc1ncccc1-c1ncnc(Nc2cccc(CS(C)(=O)=O)c2)n1` [Example 20, 4-(2-Methoxypyridin-3-yl)-N-{3-[(methylsulfonyl)methyl]phenyl}-1,3,5-triazin-2-amine], the IC50 on CDK9/CycT1 turned out to be 110 nM; against CDK2/CycE it was 8200 nM.

As for `CS(=O)(=O)Cc1cccc(Nc2ncnc(-c3cccc4c3OC(F)(F)O4)n2)c1` [Example 6, 4-(2,2-Difluoro-1,3-benzodioxol-4-yl)-N-{3-[(methylsulfonyl)methyl]phenyl}-1,3,5-triazin-2-amine], the IC50 against CDK9/CycT1 was 33 nM; against CDK2/CycE, 1300 nM.

On to `COc1cc(Cl)ccc1-c1ncnc(Nc2cccc(CS(C)(=O)=O)c2)n1` [Example 32, 4-(4-Chloro-2-methoxyphenyl)-N-{3-[(methylsulfonyl)methyl]phenyl}-1,3,5-triazin-2-amine], for which the IC50 against CDK9/CycT1 was determined as 25 nM; on CDK2/CycE, 2300 nM.

`CS(=O)(=O)Cc1cccc(Nc2ncnc(-c3ccc(F)cc3OCc3ccnc(F)c3)n2)c1` [Example 82, 4-{4-Fluoro-2-[(2-fluoropyridin-4-yl)methoxy]-phenyl}-N-{3-[(methylsulfonyl)-methyl]-phenyl}-1,3,5-triazin-2-amine]: the IC50 on CDK9/CycT1 came to 1 nM; against CDK2/CycE, 75 nM.

As for `COc1cc(F)ccc1-c1ncnc(Nc2cccc(CS(=O)(=O)c3ccccc3)c2)n1` [Example 35, 4-(4-Fluoro-2-methoxyphenyl)-N-{3-[(phenylsulfonyl)methyl]phenyl}-1,3,5-triazin-2-amine], the IC50 against CDK9/CycT1 is 30 nM; at CDK2/CycE, 2200 nM.

Turning to `COc1c(-c2ncnc(Nc3cccc(CS(C)(=O)=O)c3)n2)ccc(F)c1F` [Example 2, 4-(3,4-Difluoro-2-methoxyphenyl)-N-{3-[(methylsulfonyl)methyl]phenyl}-1,3,5-triazin-2-amine], the 50% inhibitory concentration (IC50) against CDK9/CycT1 came to 160 nM; on CDK2/CycE, 8600 nM.

As to `CS(=O)(=O)Cc1cccc(Nc2ncnc(-c3ccc(F)cc3OCCC3CCCCC3)n2)c1` [Example 63, 4-[2-(2-Cyclohexylethoxy)-4-fluorophenyl]-N-{3-[(methylsulfonyl)methyl]phenyl}-1,3,5-triazin-2-amine], the IC50 against CDK9/CycT1 was determined as 170 nM; against CDK2/CycE, 7400 nM.

In the case of `CS(=O)(=O)Cc1cccc(Nc2ncnc(-c3ccccc3OCC(F)(F)F)n2)c1` [Example 16, N-{3-[(Methylsulfonyl)methyl]phenyl}-4-[2-(2,2,2-trifluoroethoxy)phenyl]-1,3,5-triazin-2-amine], the IC50 at CDK9/CycT1 was found to be 74 nM; against CDK2/CycE, 8300 nM.

In the case of `CS(=O)(=O)Cc1cccc(Nc2ncnc(-c3cccc4c3OC(F)(F)C(F)(F)O4)n2)c1` [Example 19, N-{3-[(Methylsulfonyl)methyl]phenyl}-4-(2,2,3,3-tetrafluoro-2,3-dihydro-1,4-benzodioxin-5-yl)-1,3,5-triazin-2-amine], the IC50 at CDK9/CycT1 was determined as 35 nM; against CDK2/CycE, 640 nM.

`CS(=O)(=O)Cc1cccc(Nc2ncnc(-c3ccc(F)cc3OC3CCC3)n2)c1` [Example 64, 4-[2-(Cyclobutyloxy)-4-fluorophenyl]-N-{3-[(methylsulfonyl)methyl]phenyl}-1,3,5-triazin-2-amine]: the IC50 at CDK9/CycT1 came to 34 nM; at CDK2/CycE it was 1800 nM.

As to `COc1cc(F)ccc1-c1ncnc(Nc2cccc(CS(=O)(=O)C(C)(C)C)c2)n1` [Example 17, N-{3-[(tert-Butylsulfonyl)methyl]phenyl}-4-(4-fluoro-2-methoxyphenyl)-1,3,5-triazin-2-amine], the IC50 was 47 nM at CDK9/CycT1 and 2000 nM at CDK2/CycE.

For the compound `CS(=O)(=O)Cc1cccc(Nc2ncnc(-c3ccccc3OC(F)(F)F)n2)c1` [Example 7, N-{3-[(Methylsulfonyl)methyl]phenyl}-4-[2-(trifluoromethoxy)phenyl]-1,3,5-triazin-2-amine], the IC50 was 330 nM at CDK9/CycT1 and 5400 nM against CDK2/CycE.

On to `CS(=O)(=O)Cc1cccc(Nc2ncnc(-c3ccc(F)cc3OC(F)F)n2)c1` [Example 15, 4-[2-(Difluoromethoxy)-4-fluorophenyl]-N-{3-[(methylsulfonyl)methyl]phenyl}-1,3,5-triazin-2-amine], for which the IC50 against CDK9/CycT1 was 130 nM; on CDK2/CycE, 3900 nM.

Take `CS(=O)(=O)Cc1cccc(Nc2ncnc(-c3ccccc3OCc3ccccc3Cl)n2)c1` [Example 27, 4-{2-[(2-Chlorobenzyl)oxy]phenyl}-N-{3-[(methylsulfonyl)methyl]phenyl}-1,3,5-triazin-2-amine]: the IC50 at CDK9/CycT1 amounted to 87 nM; against CDK2/CycE, 8800 nM.

The values above are taken from patent publication US8916557B2, “Substituted 4-Aryl-N-phenyl-1,3,5-triazin-2-amines” (Bayer Intellectual Property GmbH, priority 2011, dated 2014).
